Our source for the inhibition values is patent publication EP0845266A2, “Sweet whey concentrate containing antioxidant compositions” (MK-Produktkontor GmbH, priority 1996, dated 1998).

In this assay the target is T1, Myeloperoxidase (MPO) (Homo sapiens, UniProt P05164).
T1 sequence (P05164 49-745): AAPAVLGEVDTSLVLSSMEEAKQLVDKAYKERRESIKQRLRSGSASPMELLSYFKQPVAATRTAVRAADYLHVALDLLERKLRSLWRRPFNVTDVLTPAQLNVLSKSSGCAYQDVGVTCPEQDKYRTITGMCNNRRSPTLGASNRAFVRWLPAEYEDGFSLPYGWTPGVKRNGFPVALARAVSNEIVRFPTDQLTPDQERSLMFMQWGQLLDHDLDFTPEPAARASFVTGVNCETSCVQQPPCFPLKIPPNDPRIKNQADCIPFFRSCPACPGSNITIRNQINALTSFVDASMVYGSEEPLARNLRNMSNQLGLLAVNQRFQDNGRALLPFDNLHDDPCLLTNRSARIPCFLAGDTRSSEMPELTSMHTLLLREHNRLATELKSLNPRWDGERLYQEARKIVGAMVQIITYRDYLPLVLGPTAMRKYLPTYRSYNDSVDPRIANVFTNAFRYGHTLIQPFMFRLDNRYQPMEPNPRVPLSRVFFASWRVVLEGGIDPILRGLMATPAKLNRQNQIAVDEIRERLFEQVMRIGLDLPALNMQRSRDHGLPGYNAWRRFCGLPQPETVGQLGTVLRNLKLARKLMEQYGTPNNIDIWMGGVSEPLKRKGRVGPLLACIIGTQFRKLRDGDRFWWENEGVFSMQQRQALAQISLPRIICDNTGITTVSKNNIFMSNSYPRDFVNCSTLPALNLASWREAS
The assay is described as follows: Myeloperoxidase reaction: MPO-catalysed formation of HOCl, measured as ethylene release from ACC by gas chromatography. As to conditions: CAR, in mixtures SMK 3 mg im Ansatz, 30 min, 37 °C, pH 5,7, read-out: % Hemmung; for inhibition at 100 µM: 0,1 mM AN; for inhibition at 1000 µM: 1,0 mM AN. In kind it is biochemical. An excerpt:
Die Inhibitionswirkung wurde in einem In-vitro-Teststystem geprüft, das die oxidativen Prozesse während eine Entzündung simulieren soll.
Myeloperoxidase (MPO) wird von aktivierten Leukozyten während der Degranulation in das Phagosom und das umliegende Gewebe abgegeben. Das Enzym katalysiert die Bildung von HOCl aus H2O2 und Chlorid. Durch Messung der HOCl-Konzentration in dem Reaktionssystem kann das Ausmaß der Inhibition bestimmt werden. Hypochlorit (HOCl) spaltet spezifisch Aminocyclopropancarbonsäure (ACC), wobei Ethylen entsteht.
Dieses wiederum kann gaschromatographisch identifiziert werden.
Der Einfluß einer Mischung aus Süßmolkekonzentrat (SMK) und Anserin bzw. Carnosin sowie der einzelnen Komponenten in den in Tabelle 1 angegebenen Konzentrationen auf die MPO-katalysierte Bildung von HOCl wurde untersucht. Tabelle 1
Es wurde folgender Ansatz verwendet: 0,15 M NaCl, 25 µM H2O2, 0,1 E MPO, 0,1 M Phosphatpuffer mit einem pH-Wert von 5,7 und 1 mM ACC. Die Inkubationsdauer beträgt 30 Minuten bei 37 °C. Die Ethylen-Freisetzungsrate eines Ansatzes ohne Zugabe potentieller Inhibitorstoffe entspricht einer Grundrate von 100% (0% Hemmung).

As to `Cn1cncc1C[C@H](NC(=O)CCN)C(=O)O` [AN, Anserin], the inhibition at 100 µM is 23% and the inhibition at 1000 µM amounted to 84%.

On to `NCCC(=O)N[C@@H](Cc1cnc[nH]1)C(=O)O` [CAR, Carnosin], for which the inhibition at 100 µM stood at 23% and the inhibition at 1000 µM is 86%.
